Source: PubChem BioAssay AID1963963 (Molecular Pharmacology Branch, DTP, NCI, 2024)
pIC50: −log10 of the molar value.

System: 958667-338-R-J2-PDC tumor spheroids viability
Test: Anticancer human tumor 958667-338-R-J2-PDC patient-derived colon adenocarcinoma cell line growth inhibition [PI3K]
Conditions: spheroids with HUVEC and MSC; for pIC50: curve of first compound; for viability, T/C: stronger effect = lower value
Method in brief: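 Spheroid viability read-out. Co-cultures contained the tumor line plus HUVEC and human MSCs. Each agent was paired with a PI3K inhibitor (inavolisib, alpelisib, duvelisib, copanlisib) across half-log dilutions starting at clinical Cmax, or at 10 microM when Cmax was unknown.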

[1] = second compound 0.00316 µM, first compound 0.0316 µM
[2] = second compound 0.00316 µM, first compound 0.1 µM
[3] = second compound 0.00316 µM, first compound 0.316 µM
[4] = second compound 0.00316 µM, first compound 1 µM
[5] = second compound 0.00316 µM, first compound 3.16 µM
[6] = second compound 0.00316 µM, first compound 10 µM
[7] = second compound 0.01 µM, first compound 0.0316 µM
[8] = second compound 0.01 µM, first compound 0.1 µM
[9] = second compound 0.01 µM, first compound 0.316 µM
[10] = second compound 0.01 µM, first compound 1 µM
[11] = second compound 0.01 µM, first compound 3.16 µM
[12] = second compound 0.01 µM, first compound 10 µM
[13] = second compound 0.0316 µM, first compound 0.0316 µM
[14] = second compound 0.0316 µM, first compound 0.1 µM
[15] = second compound 0.0316 µM, first compound 0.316 µM
[16] = second compound 0.0316 µM, first compound 1 µM
[17] = second compound 0.0316 µM, first compound 3.16 µM
[18] = second compound 0.0316 µM, first compound 10 µM
[19] = second compound 0.1 µM, first compound 0.0316 µM
[20] = second compound 0.1 µM, first compound 0.1 µM
[21] = second compound 0.1 µM, first compound 0.316 µM
[22] = second compound 0.1 µM, first compound 1 µM
[23] = second compound 0.1 µM, first compound 3.16 µM
[24] = second compound 0.1 µM, first compound 10 µM
[25] = second compound 0.316 µM, first compound 0.0316 µM
[26] = second compound 0.316 µM, first compound 0.1 µM
[27] = second compound 0.316 µM, first compound 0.316 µM
[28] = second compound 0.316 µM, first compound 1 µM
[29] = second compound 0.316 µM, first compound 3.16 µM
[30] = second compound 0.316 µM, first compound 10 µM
[31] = second compound 1 µM, first compound 0.0316 µM
[32] = second compound 1 µM, first compound 0.1 µM
[33] = second compound 1 µM, first compound 0.316 µM
[34] = second compound 1 µM, first compound 1 µM
[35] = second compound 1 µM, first compound 3.16 µM
[36] = second compound 1 µM, first compound 10 µM
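Further: spheroids exposed to compounds for seven days before readout.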

CC1(C)CCC(CN2CCN(c3ccc(C(=O)NS(=O)(=O)c4ccc(NCC5CCOCC5)c([N+](=O)[O-])c4)c(Oc4cnc5[nH]ccc5c4)c3)CC2)=C(c2ccc(Cl)cc2)C1 + COc1c(OCCCN2CCOCC2)ccc2c3n(c(=NC(=O)c4cnc(N)nc4)nc12)CCN3
pIC50 (second compound 0.00316 µM): 5.19
pIC50 (second compound 0.01 µM): 5.24
pIC50 (second compound 0.0316 µM): 5.28
pIC50 (second compound 0.1 µM): 5.42
pIC50 (second compound 0.316 µM): > 7.50
pIC50 (second compound 1 µM): > 7.50
viability, T/C [1]: 76.5%
viability, T/C [2]: 96.3%
viability, T/C [3]: 80.3%
viability, T/C [4]: 98.8%
viability, T/C [5]: 103%
viability, T/C [6]: 25.6%
viability, T/C [7]: 71.8%
viability, T/C [8]: 85.9%
viability, T/C [9]: 72.5%
viability, T/C [10]: 76.6%
viability, T/C [11]: 75.8%
viability, T/C [12]: 25.9%
viability, T/C [13]: 77.6%
viability, T/C [14]: 66.2%
viability, T/C [15]: 61.6%
viability, T/C [16]: 69%
viability, T/C [17]: 80.6%
viability, T/C [18]: 22.6%
viability, T/C [19]: 58%
viability, T/C [20]: 53.4%
viability, T/C [21]: 48.8%
viability, T/C [22]: 53.9%
viability, T/C [23]: 69.6%
viability, T/C [24]: 11.9%
viability, T/C [25]: 45.8%
viability, T/C [26]: 42.3%
viability, T/C [27]: 33.9%
viability, T/C [28]: 33.5%
viability, T/C [29]: 32.5%
viability, T/C [30]: 4.13%
viability, T/C [31]: 19.7%
viability, T/C [32]: 15.1%
viability, T/C [33]: 19%
viability, T/C [34]: 21.9%
viability, T/C [35]: 18.2%
viability, T/C [36]: 2.25%

C[C@@H](NC(=O)c1ncnc(N)c1Cl)c1ncc(C(=O)Nc2cc(C(F)(F)F)c(Cl)cn2)s1 + COc1c(OCCCN2CCOCC2)ccc2c3n(c(=NC(=O)c4cnc(N)nc4)nc12)CCN3
pIC50 (second compound 0.00316 µM): < 5.00
pIC50 (second compound 0.01 µM): < 5.00
pIC50 (second compound 0.0316 µM): < 5.00
pIC50 (second compound 0.1 µM): < 5.00
pIC50 (second compound 0.316 µM): > 7.50
pIC50 (second compound 1 µM): > 7.50
viability, T/C [1]: 96.1%
viability, T/C [2]: 88.5%
viability, T/C [3]: 107%
viability, T/C [4]: 110%
viability, T/C [5]: 116%
viability, T/C [6]: 66.7%
viability, T/C [7]: 96.3%
viability, T/C [8]: 96.8%
viability, T/C [9]: 111%
viability, T/C [10]: 89.5%
viability, T/C [11]: 69.9%
viability, T/C [12]: 72.1%
viability, T/C [13]: 78.9%
viability, T/C [14]: 88.3%
viability, T/C [15]: 77.5%
viability, T/C [16]: 84.3%
viability, T/C [17]: 86.1%
viability, T/C [18]: 76.2%
viability, T/C [19]: 62.2%
viability, T/C [20]: 70.8%
viability, T/C [21]: 68.1%
viability, T/C [22]: 82.1%
viability, T/C [23]: 83.2%
viability, T/C [24]: 59.8%
viability, T/C [25]: 34.3%
viability, T/C [26]: 37.2%
viability, T/C [27]: 44.1%
viability, T/C [28]: 42%
viability, T/C [29]: 57.3%
viability, T/C [30]: 34.2%
viability, T/C [31]: 20.4%
viability, T/C [32]: 19.5%
viability, T/C [33]: 20.1%
viability, T/C [34]: 20.9%
viability, T/C [35]: 15.2%
viability, T/C [36]: 5.92%

Cn1ncnc1[C@H]1c2n[nH]c(=O)c3cc(F)cc(c23)N[C@@H]1c1ccc(F)cc1 + COc1c(OCCCN2CCOCC2)ccc2c3n(c(=NC(=O)c4cnc(N)nc4)nc12)CCN3
pIC50 (second compound 0.00316 µM): < 7.00
pIC50 (second compound 0.01 µM): < 7.00
pIC50 (second compound 0.0316 µM): < 7.00
pIC50 (second compound 0.1 µM): < 7.00
pIC50 (second compound 0.316 µM): > 9.50
pIC50 (second compound 1 µM): > 9.50
viability, T/C (second compound 0.00316 µM, first compound 0.000316 µM): 96.3%
viability, T/C (second compound 0.00316 µM, first compound 0.001 µM): 104%
viability, T/C (second compound 0.00316 µM, first compound 0.00316 µM): 93.6%
viability, T/C (second compound 0.00316 µM, first compound 0.01 µM): 102%
viability, T/C [1]: 87.8%
viability, T/C [2]: 75.8%
viability, T/C (second compound 0.01 µM, first compound 0.000316 µM): 76.3%
viability, T/C (second compound 0.01 µM, first compound 0.001 µM): 72.5%
viability, T/C (second compound 0.01 µM, first compound 0.00316 µM): 94.2%
viability, T/C (second compound 0.01 µM, first compound 0.01 µM): 90.7%
viability, T/C [7]: 80.5%
viability, T/C [8]: 87.3%
viability, T/C (second compound 0.0316 µM, first compound 0.000316 µM): 69.4%
viability, T/C (second compound 0.0316 µM, first compound 0.001 µM): 74.4%
viability, T/C (second compound 0.0316 µM, first compound 0.00316 µM): 98.4%
viability, T/C (second compound 0.0316 µM, first compound 0.01 µM): 79.2%
viability, T/C [13]: 79.8%
viability, T/C [14]: 61.9%
viability, T/C (second compound 0.1 µM, first compound 0.000316 µM): 62%
viability, T/C (second compound 0.1 µM, first compound 0.001 µM): 61.7%
viability, T/C (second compound 0.1 µM, first compound 0.00316 µM): 59.6%
viability, T/C (second compound 0.1 µM, first compound 0.01 µM): 66.8%
viability, T/C [19]: 57.3%
viability, T/C [20]: 56%
viability, T/C (second compound 0.316 µM, first compound 0.000316 µM): 37%
viability, T/C (second compound 0.316 µM, first compound 0.001 µM): 38%
viability, T/C (second compound 0.316 µM, first compound 0.00316 µM): 43.8%
viability, T/C (second compound 0.316 µM, first compound 0.01 µM): 46.1%
viability, T/C [25]: 34.9%
viability, T/C [26]: 34.9%
viability, T/C (second compound 1 µM, first compound 0.000316 µM): 19.7%
viability, T/C (second compound 1 µM, first compound 0.001 µM): 15.6%
viability, T/C (second compound 1 µM, first compound 0.00316 µM): 21.7%
viability, T/C (second compound 1 µM, first compound 0.01 µM): 21.1%
viability, T/C [31]: 22.5%
viability, T/C [32]: 14.9%
